# In PubChem BioAssay AID330 (DTP/NCI, 2004):
# Several values for one entry are separate records, joined by “and”; a condition that tells them apart may be missing. Equal entries are not always repeated. Toxic doses and inconclusive results are not listed. Square brackets hold non-standard residues; d marks the D form. Peptide text beside a SMILES is read from it. * marks the point of attachment. ξ: configuration not given here. Cbz = O=C(OCc1ccccc1)*; ξV = CC(C)C(N)C(=O)O; Sar = CNCC(=O)O
# Test system: P388 leukemia ip, CD2F1 mice, survival T/C
# Assay: NCI In Vivo Anticancer Drug Screen. Data for tumor model P388 Leukemia (intraperitoneal) in CD2F1 (CDF1) mice
# Details: endpoint: median survival time, higher = longer survival
# Summary of the method: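 Mice carrying the transplanted tumor received test compound or vehicle. Survival was recorded in each group, and the value is the treated-group measurement divided by that of the vehicle-treated control group.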
# [1] = dose: 6.25 mg/kg/injection, schedule: Q01DX009 (ip), vehicle: saline with Tween-80
# [2] = dose: 12.5 mg/kg/injection, schedule: Q01DX009 (ip), vehicle: saline with Tween-80
# [3] = dose: 25.0 mg/kg/injection, schedule: Q01DX009 (ip), vehicle: saline with Tween-80
# [4] = dose: 50.0 mg/kg/injection, schedule: Q01DX009 (ip), vehicle: saline with Tween-80
# [5] = dose: 100.0 mg/kg/injection, schedule: Q01DX009 (ip), vehicle: saline with Tween-80
# [6] = dose: 100.0 mg/kg/injection, schedule: Q04DX002 (ip), vehicle: saline with Tween-80
# [7] = dose: 200.0 mg/kg/injection, schedule: Q04DX002 (ip), vehicle: saline with Tween-80
# [8] = dose: 400.0 mg/kg/injection, schedule: Q04DX002 (ip), vehicle: saline with Tween-80
# [9] = dose: 100.0 mg/kg/injection, schedule: Q04DX003 (ip), vehicle: saline with Tween-80
# [10] = dose: 50.0 mg/kg/injection, schedule: Q01DX009 (ip), vehicle: saline
# [11] = dose: 100.0 mg/kg/injection, schedule: Q01DX009 (ip), vehicle: saline
# [12] = dose: 200.0 mg/kg/injection, schedule: Q01DX009 (ip), vehicle: saline
# [13] = dose: 25.0 mg/kg/injection, schedule: Q04DX003 (ip), vehicle: saline with Tween-80
# [14] = dose: 50.0 mg/kg/injection, schedule: Q04DX003 (ip), vehicle: saline with Tween-80
# [15] = dose: 60.0 mg/kg/injection, schedule: Q01DX005 (ip), vehicle: saline with Tween-80
# [16] = dose: 120.0 mg/kg/injection, schedule: Q01DX005 (ip), vehicle: saline with Tween-80
# [17] = dose: 240.0 mg/kg/injection, schedule: Q01DX005 (ip), vehicle: saline with Tween-80
# [18] = dose: 50.0 mg/kg/injection, schedule: Q01DX005 (ip), vehicle: Klucel (hydroxypropylcellulose) (HPC)
# [19] = dose: 100.0 mg/kg/injection, schedule: Q01DX005 (ip), vehicle: Klucel (hydroxypropylcellulose) (HPC)
# [20] = dose: 200.0 mg/kg/injection, schedule: Q01DX005 (ip), vehicle: Klucel (hydroxypropylcellulose) (HPC)
# [21] = dose: 50.0 mg/kg/injection, schedule: Q01DX005 (ip), vehicle: saline with Tween-80
# [22] = dose: 100.0 mg/kg/injection, schedule: Q01DX005 (ip), vehicle: saline with Tween-80
smiles,measurement,setting,value
C[N+](C)(CCCCCCOc1c(Br)cc(Br)cc1Br)Cc1ccc(Br)o1,T/C,"dose: 1.56 mg/kg/injection, schedule: Q01DX009 (ip), vehicle: Klucel (hydroxypropylcellulose) (HPC)",104 % of control
same,T/C,"dose: 3.12 mg/kg/injection, schedule: Q01DX009 (ip), vehicle: Klucel (hydroxypropylcellulose) (HPC)",113 % of control
same,T/C,"dose: 6.25 mg/kg/injection, schedule: Q01DX009 (ip), vehicle: Klucel (hydroxypropylcellulose) (HPC)",93 % of control
C=CCNC(=S)NNC(=O)CNC(c1ccc(OC)cc1)C(CC)c1ccc(OC)cc1 (stereo not given),T/C,"dose: 100.0 mg/kg/injection, schedule: Q01DX001 (ip), vehicle: saline with Tween-80",99 % of control
same,T/C,"dose: 200.0 mg/kg/injection, schedule: Q01DX001 (ip), vehicle: saline with Tween-80",110 % of control
CN(C)/C=N\c1ncnc2c1ncn2C1OC(CO)C(O)C1O (stereo not given),T/C,[1],104 % of control
same,T/C,[2],98 % of control
same,T/C,[3],102 % of control
same,T/C,[4],99 % of control
same,T/C,[5],95 % of control
c1cc2ccc3ccc4ccc5ccc6ccc1c1c2c3c4c5c61,T/C,"dose: 12.5 mg/kg/injection, schedule: Q01DX001 (ip), vehicle: Klucel (hydroxypropylcellulose) (HPC)",100 % of control
same,T/C,"dose: 25.0 mg/kg/injection, schedule: Q01DX001 (ip), vehicle: Klucel (hydroxypropylcellulose) (HPC)",104 % of control
same,T/C,"dose: 50.0 mg/kg/injection, schedule: Q01DX001 (ip), vehicle: Klucel (hydroxypropylcellulose) (HPC)",96 % of control
same,T/C,"dose: 100.0 mg/kg/injection, schedule: Q01DX001 (ip), vehicle: Klucel (hydroxypropylcellulose) (HPC)",96 % of control
c1ccc(-c2cc3ccc4cccnc4c3o2)cc1,T/C,[6],91 % of control
same,T/C,[7],87 % of control
same,T/C,[8],103 % of control
CC(C)(C)N1CCC1CN (stereo not given),T/C,"dose: 25.0 mg/kg/injection, schedule: Q01DX005 (ip), vehicle: saline",90 % of control
same,T/C,"dose: 50.0 mg/kg/injection, schedule: Q01DX005 (ip), vehicle: saline",100 % of control
same,T/C,"dose: 100.0 mg/kg/injection, schedule: Q01DX005 (ip), vehicle: saline",104 % of control
same,T/C,"dose: 200.0 mg/kg/injection, schedule: Q01DX005 (ip), vehicle: saline",100 % of control
COc1ccc(C(=O)CC(C(=O)O)c2ccc(OC)cc2)cc1 (stereo not given),T/C,[9],102 % of control
same,T/C,"dose: 200.0 mg/kg/injection, schedule: Q04DX003 (ip), vehicle: saline with Tween-80",94 % of control
same,T/C,"dose: 400.0 mg/kg/injection, schedule: Q04DX003 (ip), vehicle: saline with Tween-80",99 % of control
CC(C)N1CCN(c2ccncc2S(=O)(=O)N2CCCC2)CC1,T/C,[10],87 % of control
same,T/C,[11],99 % of control
same,T/C,[12],97 % of control
CC(C)(C)SC(=O)CC(O)(c1ccccc1)c1ccccc1,T/C,"dose: 100.0 mg/kg/injection, schedule: Q04DX003 (ip), vehicle: Klucel (hydroxypropylcellulose) (HPC)",115 % of control
same,T/C,"dose: 200.0 mg/kg/injection, schedule: Q04DX003 (ip), vehicle: Klucel (hydroxypropylcellulose) (HPC)",106 % of control
same,T/C,"dose: 400.0 mg/kg/injection, schedule: Q04DX003 (ip), vehicle: Klucel (hydroxypropylcellulose) (HPC)",95 % of control
CCCCCCCC(=O)[O][Hg][CH2]C1COC([CH2][Hg][O]C(=O)CCCCCCC)CO1 (stereo not given),T/C,"dose: 12.5 mg/kg/injection, schedule: Q04DX003 (ip), vehicle: saline with Tween-80",95 % of control
same,T/C,"dose: 16.5 mg/kg/injection, schedule: Q01DX009 (ip), vehicle: saline sonified",120 % of control
same,T/C,"dose: 16.5 mg/kg/injection, schedule: Q04DX003 (ip), vehicle: saline",90 % of control
same,T/C,[13],109 % of control
same,T/C,"dose: 25.0 mg/kg/injection, schedule: Q04DX003 (ip), vehicle: saline",90 % of control
same,T/C,"dose: 37.5 mg/kg/injection, schedule: Q01DX009 (ip), vehicle: saline sonified",120 % of control
same,T/C,"dose: 37.5 mg/kg/injection, schedule: Q04DX003 (ip), vehicle: saline",90 % of control
same,T/C,[14],118 % of control
COC(=O)C(C)N(CCCl)P1(=O)OCCCN1CCCl (stereo not given),T/C,[15],108 % of control
same,T/C,"dose: 60.0 mg/kg/injection, schedule: Q01DX005 (ip), vehicle: saline",99 % of control
same,T/C,[16],124 % of control
same,T/C,[17],165 % of control
same,T/C,"dose: 240.0 mg/kg/injection, schedule: Q01DX005 (ip), vehicle: saline",297 % of control
same,T/C,"dose: 400.0 mg/kg/injection, schedule: Q01DX005 (ip), vehicle: saline with Tween-80",252 % of control
CC1C(=O)C(C)C(c2ccccc2)NC1c1ccccc1 (stereo not given),T/C,[10],99 % of control
same,T/C,[11],98 % of control
same,T/C,[12],89 % of control
CC(=O)C1CC(CC(=O)O)C1(C)C (stereo not given),T/C,"dose: 25.0 mg/kg/injection, schedule: Q01DX009 (ip), vehicle: Klucel (hydroxypropylcellulose) (HPC)",96 % of control
same,T/C,"dose: 50.0 mg/kg/injection, schedule: Q01DX009 (ip), vehicle: Klucel (hydroxypropylcellulose) (HPC)",108 % of control and 92 % of control
same,T/C,"dose: 100.0 mg/kg/injection, schedule: Q01DX009 (ip), vehicle: Klucel (hydroxypropylcellulose) (HPC)",96 % of control and 97 % of control
same,T/C,"dose: 200.0 mg/kg/injection, schedule: Q01DX009 (ip), vehicle: Klucel (hydroxypropylcellulose) (HPC)",99 % of control and 100 % of control
same,T/C,"dose: 400.0 mg/kg/injection, schedule: Q01DX009 (ip), vehicle: Klucel (hydroxypropylcellulose) (HPC)",100 % of control
CCc1cccc(C)c1NC(=O)CCC(=O)OC,T/C,[15],102 % of control
same,T/C,[16],97 % of control
same,T/C,[17],96 % of control
Cn1c(=O)c2c(Nc3ccccc3)ncnc2n(C)c1=O,T/C,"dose: 35.0 mg/kg/injection, schedule: Q01DX005 (ip), vehicle: saline with Tween-80",87 % of control
same,T/C,"dose: 70.0 mg/kg/injection, schedule: Q01DX005 (ip), vehicle: saline with Tween-80",87 % of control
O=c1c2ccccc2nc(C(F)(F)F)n1CCc1c[nH]c2ccccc12,T/C,[18],93 % of control
same,T/C,[19],92 % of control
same,T/C,[20],98 % of control
CC1(C)CO/C(=C/C(=O)c2ccccc2)N1C(=O)c1ccccc1,T/C,[15],99 % of control
same,T/C,[16],90 % of control
CNC(=O)Nc1nnnc2ccccc12,T/C,[13],90 % of control
same,T/C,[14],100 % of control
same,T/C,[9],100 % of control
COc1ccc2c(c1)NC(C(C)C)=NS2(=O)=O,T/C,"dose: 60.0 mg/kg/injection, schedule: Q01DX005 (ip), vehicle: Klucel (hydroxypropylcellulose) (HPC)",99 % of control
same,T/C,"dose: 120.0 mg/kg/injection, schedule: Q01DX005 (ip), vehicle: Klucel (hydroxypropylcellulose) (HPC)",95 % of control
same,T/C,"dose: 240.0 mg/kg/injection, schedule: Q01DX005 (ip), vehicle: Klucel (hydroxypropylcellulose) (HPC)",97 % of control
CSCCc1nc(C)oc1C,T/C,[4],94 % of control
same,T/C,[5],100 % of control
same,T/C,"dose: 200.0 mg/kg/injection, schedule: Q01DX009 (ip), vehicle: saline with Tween-80",102 % of control
CC(C)C(NC(=O)CN(C)C(=O)OCc1ccccc1)C(=O)O (stereo not given) (Cbz-[Sar]-[ξV]-OH),T/C,[21],100 % of control
same,T/C,[22],102 % of control
COc1cc(NCCCCCN=C(N)NC#N)c2ncccc2c1,T/C,[18],99 % of control
same,T/C,[19],98 % of control
same,T/C,[20],92 % of control
CN(C)c1ccc(C(C#N)C(C#N)c2ccccc2)cc1 (stereo not given),T/C,[1],94 % of control
same,T/C,[2],94 % of control
same,T/C,[3],103 % of control
same,T/C,[4],100 % of control
CC(=O)C1C(C=C(C)C)C1(C)C (stereo not given),T/C,[6],96 % of control
same,T/C,[7],106 % of control
same,T/C,[8],101 % of control
CN(C)C(=S)n1c(=S)nc(N(C)C)sc1=S,T/C,"dose: 12.5 mg/kg/injection, schedule: Q01DX005 (ip), vehicle: saline with Tween-80",103 % of control
same,T/C,"dose: 25.0 mg/kg/injection, schedule: Q01DX005 (ip), vehicle: saline with Tween-80",108 % of control
same,T/C,[21],108 % of control and 113 % of control
same,T/C,[22],109 % of control
COC(=O)C1=CSCCC1=O,T/C,[18],105 % of control
same,T/C,[19],106 % of control
same,T/C,[20],117 % of control
